Experimental data from ChEMBL document CHEMBL1833960, “Identification of 5,6-substituted 4-aminothieno[2,3-d]pyrimidines as LIMK1 inhibitors” (Bioorg Med Chem Lett, 2011).

Legend:
[1] = biological target: T1, LIM domain kinase 1 (Homo sapiens, UniProt P53667); assay: Inhibition of LIMK1 using cofilin-2 as substrate after 60 mins by Kinase-Glo assay
[2] = biological target: T1, LIM domain kinase 1; assay: Inhibition of LIMK1 using cofilin-2 as substrate after 60 mins by TR-FRET assay

T1 sequence (P53667 whole entry, the tested form may be a part): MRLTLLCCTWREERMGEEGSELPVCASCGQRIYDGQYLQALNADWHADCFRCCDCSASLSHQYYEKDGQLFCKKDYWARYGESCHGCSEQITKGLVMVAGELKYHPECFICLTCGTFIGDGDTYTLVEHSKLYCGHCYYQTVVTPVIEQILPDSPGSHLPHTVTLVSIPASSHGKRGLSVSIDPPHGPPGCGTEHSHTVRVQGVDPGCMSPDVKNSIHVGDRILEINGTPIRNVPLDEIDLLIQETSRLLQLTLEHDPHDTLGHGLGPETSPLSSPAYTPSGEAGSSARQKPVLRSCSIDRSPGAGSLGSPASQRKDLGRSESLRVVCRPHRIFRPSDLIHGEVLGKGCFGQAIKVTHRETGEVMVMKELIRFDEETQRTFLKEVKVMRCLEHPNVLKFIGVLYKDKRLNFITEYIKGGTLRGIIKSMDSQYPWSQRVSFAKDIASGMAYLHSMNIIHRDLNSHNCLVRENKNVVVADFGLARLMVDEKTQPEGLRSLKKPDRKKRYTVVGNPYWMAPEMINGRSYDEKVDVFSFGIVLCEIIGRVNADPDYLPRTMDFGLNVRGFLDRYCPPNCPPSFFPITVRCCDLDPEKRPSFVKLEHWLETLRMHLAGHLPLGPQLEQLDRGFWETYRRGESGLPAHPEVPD

Row | SMILES | IC50 [1] [µM] | IC50 [2] [µM]
1 | CN(C)c1ncnc2sc3c(c12)CCCC3 | > 100 | > 100
2 | COc1ccc(Nc2ncnc3sc4c(c23)CCCC4)cc1 | > 100 | > 100
3 | OCCNc1ncnc2sc3c(c12)CCCC3 | > 100 | > 100
4 | c1ccc(CCNc2ncnc3sc4c(c23)CCCC4)cc1 | > 100 | > 100
5 | Nc1nc(-c2ccccc2)nc2sc3c(c12)CCCC3 | > 100 | > 100
6 | Nc1ncnc2sc3c(c12)CCC(c1ccccc1)C3 (stereo not given) | > 20 | > 20
7 | Nc1ncnc2sc3c(c12)CCC(C(=O)O)C3 (stereo not given) | > 20 | > 20
8 | Cc1nc(N)c2c3c(sc2n1)CCCC3 | > 100 | > 100
9 | Nc1nc(S)nc2sc3c(c12)CCCCC3 | > 100 | > 100
10 | CSc1nc(N)c2c3c(sc2n1)CCC3 | > 100 | > 100
11 | Nc1nc(=S)[nH]c2sc3c(c12)CCCC3 | > 100 | > 100
12 | Nc1nc(SCC(=O)O)nc2sc3c(c12)CCCC3 | > 100 | > 100
13 | Nc1nc(-c2cccs2)nc2sc3c(c12)CCCC3 | > 100 | > 100
14 | CSc1nc(N)c2c3c(sc2n1)CCCCC3 | > 100 | > 100
15 | CNc1ncnc2sc3c(c12)CCCC3 | > 100 | > 100
16 | NCCNc1ncnc2sc3c(c12)CCCC3 | > 100 | > 100
17 | CC(Nc1ncnc2sc3c(c12)CCCC3)c1ccccc1 (stereo not given) | > 100 | > 100
18 | c1nc(N2CCCCC2)c2c3c(sc2n1)CCCC3 | > 100 | > 100
19 | NC(=O)c1sc2ncccc2c1N | 37 | –
20 | CSc1nc(N)c2c3c(sc2n1)CCCC3 | > 100 | > 100

More lines, in order of falling IC50 [1], values ahead:

Row | IC50 [1] [µM] | IC50 [2] [µM] | SMILES
21 | 33 | – | NC(=O)c1sc2ccccc2c1N
22 | 18 | 18 | CC1CCc2c(sc3ncnc(N)c23)C1 (stereo not given)
23 | 17 | 17 | Cc1c(-c2ccccc2)sc2ncnc(N)c12
24 | 12.7 | 12.7 | CC1(C)Cc2c(sc3ncnc(N)c23)CO1
25 | 11 | 11 | Nc1ncnc2sc3c(c12)Cc1ccccc1-3
26 | 9.5 | 9.5 | Nc1ncnc2sc3c(c12)CCC(C(=O)N1CCOCC1)C3 (stereo not given)
27 | 9.1 | 9.1 | NC(=O)C1CCc2c(sc3ncnc(N)c23)C1 (stereo not given)
28 | 9 | – | Nc1ncnc2c1sc1ncccc12
29 | 8.6 | 8.6 | Nc1ncnc2sc3c(c12)CCC(C(=O)NCc1ccccc1)C3 (stereo not given)
30 | 7 | – | Nc1ncnc2c1sc1ccccc12
31 | 5.3 | 5.3 | Nc1ncnc2sc3c(c12)CCC3
32 | 4.4 | 4.4 | Cc1sc2ncnc(N)c2c1C
33 | 4.3 | 4.3 | Nc1ncnc2sc3c(c12)CCc1ccccc1-3
34 | 4 | – | Cn1c2ccccc2c2ncnc(N)c21
35 | 4 | 4 | Nc1ncnc2sc3c(c12)CCCC3
36 | 3.5 | 3.5 | Nc1ncnc2sc3c(c12)CCOC3
37 | 3.2 | 3.2 | COc1ccc(-c2sc3ncnc(N)c3c2C)cc1OC
38 | 2.8 | 2.8 | CC1(C)CCc2c(sc3ncnc(N)c23)C1
39 | 2.7 | 2.7 | CC1CCCc2sc3ncnc(N)c3c21 (stereo not given)
40 | 2.5 | 2.5 | Nc1ncnc2sc3c(c12)CCCCC3
41 | 2.3 | 2.3 | CCOC(=O)C1CCc2c(sc3ncnc(N)c23)C1 (stereo not given)
42 | 2.1 | 2.1 | CC1(C)CCc2sc3ncnc(N)c3c21
43 | 1.8 | 1.8 | Nc1ncnc2sc3c(c12)CC1CC3C1
44 | 0.66 | 0.66 | Nc1ncnc2sc3c(c12)CCN(Cc1ccccc1)C3
45 | 0.3 | – | Nc1ncnc2c1sc1cc(-c3ccccc3)ccc12
46 | 0.26 | – | Cn1c2cc(-c3ccccc3)ccc2c2ncnc(N)c21
